Results reported in patent US8603737B2, “Methods for identifying HCV protease inhibitors” (priority 2008, dated 2013).

What was measured:
[1] = biological target: T1, NS3 protease self-cleavage in Huh-7-Luc-Neo-ET cells (Hepatitis C virus genotype 1b, UniProt Q9WMX2, E1202G/T1280I); assay type: cell-based, HCV; settings: replicon cells treated for 16 hours, continuous exposure (FIG. 3)
T1 construct: host or cells: Huh-7-Luc-Neo-ET replicon cells (human hepatoma Huh7)
Protocol: Inhibition of Protease Self Cleavage
The remaining wells were rinsed 2× with PBS then fed with Replicon Media and returned to the incubator.
Cell lysates were separated by SDS-Page (4-20%) and transferred to Immobilon-P PVDF membrane (Millipore Corporation, MA) and blotted with polyclonal anti NS3 antibody (Bioenza, Calif.). Blots were scanned on an Odyssey infrared scanner from Licor and the FL band and cleavage products were quantified separately using the Licor software provided with the scanner. The cleavage product was calculated as a percentage of the total NS3 in each sample and then normalized to the DMSO control so that the DMSO control reflects 100% activity.

[2] = test system: HCV RNA replicon in cell line ET (luc-ubi-neo/ET), human Huh7 hepatoma; assay: HCV RNA replicon assay (Example 5, Method A); assay type: cell-based; settings: Hepatitis C virus, Huh-7, 72 h
Protocol: The compounds were assayed to evaluate the antiviral activity and cytotoxicity of compounds in vitro using HCV RNA replicons. This assay used the cell line ET (luc-ubi-neo/ET), which is a human Huh7 hepatoma cell line that contains an HCV RNA replicon with a stable luciferase (Luc) reporter and cell culture-adaptive mutations. The HCV RNA levels were directly measured by viral specific TaqMan RT-PCR:
The ET cell line was grown in Dulbecco's modified essential media (DMEM), 10% fetal bovine serum (FBS), 1% penicillin-streptomycin (pen-strep), 1% glutamine, 250 μg/mL G418 in a 5% CO2 incubator at 37° C. All cell culture reagents were obtained from Mediatech (Manassas, Va.). Cells were trypsinized (1% trypsin:EDTA) and plated out at 5×10^3 cells/well in white 96-well assay plates (Costar) dedicated to cell number (cytotoxicity) or antiviral activity assessments. Drugs were added at six 3-fold concentrations each and the assay was run in DMEM, 5% FBS, 1% pen-strep, 1% glutamine. Human interferon alpha-2b (PBL Biolabs, New Brunswick, N.J.) was included in each run as a positive control compound. […] Antiviral activity was measured by analyzing replicon-derived luciferase activity using the Steady-Glo Luciferase Assay System (Promega, Madison, Wis.) according to manufacturer's instruction. The number of cells in each well was determined by CytoTox-1 reagent (Promega). […]

HCV (D168V) mutant = biological target: T2, HCV (D168V) mutant (Hepatitis C virus genotype 1b, UniProt P26663, D1194V); assay: Mass spectrometric analysis of covalent modification, D168V mutant; assay type: binding; settings: 3 hours reaction time
T2 construct: genotype 1b mutations in the NS3 protease of A156T, A156S, D168V, D168A, and R155K
Protocol: (§1) Mass spectrometric analysis of HCV wild type or HCV variants (C159S, A156S, R155K, D168A, A156T, and D168V) in the presence of test compound was performed. 100 pmols of HCV wild type (Bioenza Calif.) was incubated with test compound for 1 hr and 3 hrs at 10-fold excess of test compound to protein. 1 μL aliquots of the samples (total volume of 4.24 μL) were diluted with 10 μL of 0.1% TFA prior to micro C4 ZipTipping directly onto the MALDI target using Sinapinic acid as the desorption matrix (10 mg/mL in 0.1% TFA:Acetonitrile 50:50). Analyses were performed on a Shimadzu Biotech Axima TOF (Shimadzu Instruments) matrix-assisted-laser desorption/ionization Time-of-Flight (MALDI-TOF) mass spectrometer. The same procedure was carried out on 100 pmols of HCV C159S mutant of HCV protease for 3 hrs at 10-fold excess of test compound to protein.

HCV (A156S) mutant = biological target: T3, HCV (A156S) mutant (Hepatitis C virus genotype 1b, UniProt P26663, A1182S); assay: Mass spectrometric analysis of covalent modification, A156S mutant; assay type: binding; settings: 3 hours reaction time
T3 construct: genotype 1b mutations in the NS3 protease of A156T, A156S, D168V, D168A, and R155K
Protocol: as §1

HCV (R155K) mutant = assay: Mass spectrometric analysis of covalent modification, R155K mutant; assay type: binding; settings: 3 hours reaction time
Protocol: as §1

HCV (A156T) mutant = biological target: T4, HCV (A156T) mutant (Hepatitis C virus genotype 1b, UniProt P26663, A1182T); assay: Mass spectrometric analysis of covalent modification, A156T mutant; assay type: binding; settings: 3 hours reaction time
T4 construct: genotype 1b mutations in the NS3 protease of A156T, A156S, D168V, D168A, and R155K
Protocol: as §1

CC(C)(C)OC(=O)NC1CN(C(=O)CCl)CCC/C=C\[C@@H]2C[C@@]2(C(=O)NS(=O)(=O)C2CC2)NC(=O)[C@@H]2C[C@@H](OC(=O)N3Cc4cccc(F)c4C3)CN2C1=O (stereo partly shown) [Compound 8]
NS3 internal self-cleavage products after treatment [1]: inhibited

C=C[C@@H]1C[C@]1(NC(=O)[C@@H]1C[C@@H](Oc2cc(-c3ccccc3)nc3cc(OC)ccc23)CN1C(=O)C(NC(=O)OC(C)(C)C)[C@@H](C)OC(=O)/C=C/C)C(=O)NS(=O)(=O)C1CC1 (stereo partly shown) [Compound 3]
IC50 ([2]; read-out: Inhibition, Replicon (IC50)): < 10 nM
IC90 ([2]; read-out: Inhibition, Replicon, IC90 value): < 10 nM

C=CC(=O)N(C)C[C@H](NC(=O)OC(C)(C)C)C(=O)N1C[C@H](OC(=O)N2Cc3cccc(F)c3C2)C[C@H]1C(=O)N[C@]1(C(=O)NS(=O)(=O)C2CC2)C[C@H]1C=C [Compound 4]
conversion via covalent modification (mass spectrometry) (HCV (D168V) mutant): complete conversion
conversion via covalent modification (mass spectrometry) (HCV (A156S) mutant): complete conversion
conversion via covalent modification (mass spectrometry) (HCV (R155K) mutant): good conversion
conversion via covalent modification (mass spectrometry) (HCV (A156T) mutant): complete conversion
